Biological target: human σ1 receptor (Homo sapiens, UniProt Q99720)
Assay: biochemical
Type: binding
Design: μ and σ1 dual (binding to the σ1 receptor and the μ-opioid receptor expressed as Ki): key to the marks not given beside the values

human σ1 receptor, sequence (Q99720 whole entry): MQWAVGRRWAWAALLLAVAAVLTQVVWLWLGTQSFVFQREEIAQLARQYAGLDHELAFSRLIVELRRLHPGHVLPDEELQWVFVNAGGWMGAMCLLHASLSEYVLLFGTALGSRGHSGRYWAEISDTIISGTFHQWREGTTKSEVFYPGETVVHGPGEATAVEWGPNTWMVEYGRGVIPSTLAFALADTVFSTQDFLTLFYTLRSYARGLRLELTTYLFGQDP

## CCC(=O)N(CC1(N2CCN(Cc3ccccc3)CC2)CCOC2(CCCC2)C1)c1cccc(C(F)(F)F)n1 (stereo not drawn) [Example 89, N-((9-(4-benzylpiperazin-1-yl)-6-oxaspiro[4.5]decan-9-yl)methyl)-N-(6-(trifluoromethyl)pyridin-2-yl)propionamide]
  Ki: < 0.1 µM

## CCC(=O)N(CC1(N2CCN(Cc3ccccc3)CC2)CC1)c1nccs1 [Example 92, N-((1-(4-benzylpiperazin-1-yl)cyclopropyl)methyl)-N-(thiazol-2-yl)propionamide]
  Ki: < 0.5 µM

## CCC(=O)N(CC1(N2CCN(Cc3ccccc3)CC2)CC1)c1cncc(F)c1 [Example 93, N-((1-(4-benzylpiperazin-1-yl)cyclopropyl)methyl)-N-(5-fluoropyridin-3-yl)propionamide]
  Ki: < 0.5 µM

## CCC(=O)N(CC1(N2CCN(Cc3ccccc3)CC2)CC1)c1ccc(C(F)(F)F)cn1 [Example 94, N-((1-(4-benzylpiperazin-1-yl)cyclopropyl)methyl)-N-(5-(trifluoromethyl)pyridin-2-yl)propionamide]
  μ and σ1 dual (binding to the σ1 receptor and the μ-opioid receptor expressed as Ki): ++

## CCC(=O)N(CC1(N2CCN(Cc3ccccc3)CC2)CC1)c1cccc(C#N)c1 [Example 96, N-((1-(4-benzylpiperazin-1-yl)cyclopropyl)methyl)-N-(3-cyanophenyl)propionamide]
  Ki: < 0.5 µM

## CCC(=O)N(CC1(N2CCN(Cc3ccccc3)CC2)CC1)c1cccc(C#N)n1 [Example 97, N-((1-(4-benzylpiperazin-1-yl)cyclopropyl)methyl)-N-(6-cyanopyridin-2-yl)propionamide]
  Ki: < 0.5 µM

## CCC(=O)N(CC)CC1(N2CCN(Cc3ccccc3)CC2)CCOCC1 [Example 99, N-((4-(4-benzylpiperazin-1-yl)tetrahydro-2H-pyran-4-yl)methyl)-N-ethylpropionamide]
  μ and σ1 dual (binding to the σ1 receptor and the μ-opioid receptor expressed as Ki): ++

## CCC(=O)N(CC1(N2CCN(Cc3cccc(F)c3)CC2)CCOCC1)c1ccccc1 [Example 100, N-((4-(4-(3-fluorobenzyl)piperazin-1-yl)tetrahydro-2H-pyran-4-yl)methyl)-N-phenylpropionamide]
  Ki: < 0.1 µM

## CCC(=O)N(CC1(N2CCN(Cc3cccnc3)CC2)CCOCC1)c1ccccc1 [Example 101, N-phenyl-N-((4-(4-(pyridin-3-ylmethyl)piperazin-1-yl)tetrahydro-2H-pyran-4-yl)methyl)propionamide]
  Ki: < 0.5 µM

## CCC(=O)N(CC1(N2CCN(Cc3ccccn3)CC2)CCOCC1)c1ccccc1 [Example 102, N-phenyl-N-((4-(4-(pyridin-2-ylmethyl)piperazin-1-yl)tetrahydro-2H-pyran-4-yl)methyl)propionamide]
  Ki: > 0.5 µM

## CCC(=O)N(CC1(N2CCN(Cc3ccc(C(F)(F)F)nc3)CC2)CCOCC1)c1ccccc1 [Example 103, N-phenyl-N-((4-(4-((6-(trifluoromethyl)pyridin-3-yl)methyl)piperazin-1-yl)tetrahydro-2H-pyran-4-yl)methyl)propionamide]
  Ki: > 0.5 µM

## CCC(=O)N(CC1(N2CCN(Cc3ccccc3F)CC2)CCOCC1)c1ccccc1 [Example 104, N-((4-(4-(2-fluorobenzyl)piperazin-1-yl)tetrahydro-2H-pyran-4-yl)methyl)-N-phenylpropionamide]
  Ki: < 0.5 µM

## CCC(=O)N(CC1(N2CCN(Cc3ccc(F)cc3)CC2)CCOCC1)c1ccccc1 [Example 105, N-((4-(4-(4-fluorobenzyl)piperazin-1-yl)tetrahydro-2H-pyran-4-yl)methyl)-N-phenylpropionamide]
  Ki: < 0.1 µM

## CCC(=O)N(CC1(N2CCN(Cc3ccncc3)CC2)CCOCC1)c1ccccc1 [Example 106, N-phenyl-N-((4-(4-(pyridin-4-ylmethyl)piperazin-1-yl)tetrahydro-2H-pyran-4-yl)methyl)propionamide]
  μ and σ1 dual (binding to the σ1 receptor and the μ-opioid receptor expressed as Ki): ++

## CCC(=O)N(CC1(N2CCN(Cc3cncc(F)c3)CC2)CCOCC1)c1ccccc1 [Example 107, N-((4-(4-((5-fluoropyridin-3-yl)methyl)piperazin-1-yl)tetrahydro-2H-pyran-4-yl)methyl)-N-phenylpropionamide]
  Ki: < 0.5 µM

## CCC(=O)N(CC1(N2CCN(Cc3ccc(F)c(F)c3)CC2)CCOCC1)c1ccccc1 [Example 108, N-((4-(4-(3,4-difluorobenzyl)piperazin-1-yl)tetrahydro-2H-pyran-4-yl)methyl)-N-phenylpropionamide]
  Ki: < 0.5 µM

## CCC(=O)N(CC1(N2CCN(Cc3ccc(OC)nc3)CC2)CCOCC1)c1ccccc1 [Example 109, N-((4-(4-((6-methoxypyridin-3-yl)methyl)piperazin-1-yl)tetrahydro-2H-pyran-4-yl)methyl)-N-phenylpropionamide]
  Ki: < 0.5 µM

## CCC(=O)N(CC1(N2CCN(Cc3cccc(F)c3)CC2)CCOCC1)c1ccccn1 [Example 110, N-((4-(4-(3-fluorobenzyl)piperazin-1-yl)tetrahydro-2H-pyran-4-yl)methyl)-N-(pyridin-2-yl)propionamide]
  Ki: < 0.5 µM

## CCC(=O)N(CC1(N2CCN(Cc3ccc(F)cc3)CC2)CCOCC1)c1ccccn1 [Example 111, N-((4-(4-(4-fluorobenzyl)piperazin-1-yl)tetrahydro-2H-pyran-4-yl)methyl)-N-(pyridin-2-yl)propionamide]
  Ki: < 0.5 µM

## CCC(=O)N(CC1(N2CCN(C(C)COC)CC2)CCOCC1)c1cccc(C(F)(F)F)n1 (stereo not drawn) [Example 112, N-((4-(4-(1-methoxypropan-2-yl)piperazin-1-yl)tetrahydro-2H-pyran-4-yl)methyl)-N-(6-(trifluoromethyl)pyridin-2-yl)propionamide]
  μ and σ1 dual (binding to the σ1 receptor and the μ-opioid receptor expressed as Ki): ++

## CCC(=O)N(CC1(N2CCN(Cc3ccc(C(F)(F)F)nc3)CC2)CC1)c1ccccc1 [Example 113, N-phenyl-N-((1-(4-((6-(trifluoromethyl)pyridin-3-yl)methyl)piperazin-1-yl)cyclopropyl)methyl)propionamide]
  μ and σ1 dual (binding to the σ1 receptor and the μ-opioid receptor expressed as Ki): ++

## CCC(=O)N(CC1(N2CCN(Cc3ccccn3)CC2)CC1)c1ccccc1 [Example 114, N-phenyl-N-((1-(4-(pyridin-2-ylmethyl)piperazin-1-yl)cyclopropyl)methyl)propionamide]
  Ki: < 0.5 µM

## CCC(=O)N(CC1(N2CCN(Cc3ccc(NC(C)=O)cc3)CC2)CC1)c1ccccc1 [Example 115, N-((1-(4-(4-acetamidobenzyl)piperazin-1-yl)cyclopropyl)methyl)-N-phenylpropionamide]
  μ and σ1 dual (binding to the σ1 receptor and the μ-opioid receptor expressed as Ki): ++

## CCC(=O)N(CC1(N2CCN(Cc3cccc(F)c3)CC2)CC1)c1ccccc1 [Example 116, N-((1-(4-(3-fluorobenzyl)piperazin-1-yl)cyclopropyl)methyl)-N-phenylpropionamide]
  Ki: < 0.1 µM

## CCC(=O)N(CC1(N2CCN(Cc3ccc(F)c(F)c3)CC2)CC1)c1ccccc1 [Example 117, N-((1-(4-(3,4-difluorobenzyl)piperazin-1-yl)cyclopropyl)methyl)-N-phenylpropionamide]
  Ki: < 0.1 µM

## CCC(=O)N(CC1(N2CCN(Cc3ccccc3F)CC2)CC1)c1ccccc1 [Example 118, N-((1-(4-(2-fluorobenzyl)piperazin-1-yl)cyclopropyl)methyl)-N-phenylpropionamide]
  Ki: < 0.1 µM

## CCC(=O)N(CC1(N2CCN(Cc3cccnc3)CC2)CC1)c1ccccc1 [Example 119, N-phenyl-N-((1-(4-(pyridin-3-ylmethyl)piperazin-1-yl)cyclopropyl)methyl)propionamide]
  Ki: < 0.5 µM
